These results are taken from publication PMC7449170, “ATI-2173, a Novel Liver-Targeted Non-Chain-Terminating Nucleotide for Hepatitis B Virus Cure Regimens” (Antimicrobial Agents and Chemotherapy, 2020).

In one data set the test system is HBV genotype D. As to the kind of experiment: Anti-HBV activity in HepG2.2.15 cells (extracellular HBV DNA by qPCR). The data set is classed as cell-based. The conditions noted are these: Hepatitis B virus, 192 h; HepG2.2.15 cells, qPCR, day 8; read-out: EC50, extracellular HBV DNA. Here is the method: ATI-2173 was obtained from WuXi SynTheAll. Entecavir (positive control) was obtained from Shanghai Titan Scientific Co., Ltd. HepG2.2.15 cells (derived from human hepatoblastoma cell-like HepG2) contain four 5′ to 3′ tandem copies of the HBV genotype D and were provided by WuXi. HepG2.2.15 cells were cultured in Dulbecco’s modified Eagle medium (DMEM)/F12 (Invitrogen, 11330032) supplemented with 2% fetal bovine serum (FBS) (HyClone, SV30087.03), 1% L-glutamine, 1% minimum essential medium (MEM) nonessential amino acid solution (NEAA), and 1% penicillin-streptomycin solution. QIAamp 96 DNA blood kit was purchased from Qiagen (51162). […] Culture medium containing ATI-2173 or entecavir (serially diluted) was added to cells on day 2 and refreshed on day 5. ATI-2173 dilutions were: 0.0006, 0.0024, 0.0098, 0.0391, 0.1563, 0.6250, 2.5000, and 10.0000 μM. On day 8, cell culture supernatants were collected and DNA was extracted by the QIAamp 96 DNA blood kit. qPCR was run at 95°C for 10 min, then cycled at 95°C for 15 s, 60°C for 1 min, for a total of 40 cycles. HBV DNA content in the samples was calculated according to the standard curve and CT (cycle threshold of qPCR) values of a sample. Data were normalized for maximum and minimum copy numbers.

The test system of data set [1] is HBV genotypes A, B, C, D, E, F, G, and H. Nature of the data set: microbe, parasite or virus in culture. The data set is classed as cell-based. The settings on record: Hepatitis B virus, HepG2, read-out: EC50 across HBV genotypes A to H.
In data set [2] the test system is HBV genotype B (JN406371). Nature of the data set: microbe, parasite or virus in culture. Format: cell-based. The conditions noted are these: Hepatitis B virus, HepG2.
Data set [3] has as its system HBV genotype C (AB246345). As to the kind of experiment: microbe, parasite or virus in culture. The data set is classed as cell-based. The conditions noted are these: Hepatitis B virus, HepG2.
For the next data set, the system named is HBV genotype D (U955551). Nature of the data set: microbe, parasite or virus in culture. The conditions noted are these: Hepatitis B virus, HepG2. Format: cell-based.
Data set [4] relates to HBV genotype E (AB091255). Nature of the data set: microbe, parasite or virus in culture. Format: cell-based. The conditions noted are these: Hepatitis B virus, HepG2.
A further data set relates to HBV wild type (U95551). Nature of the data set: Cross-resistance in transfected HepG2 cells, wild type. The data set is classed as cell-based, Hepatitis B virus. The settings on record: Hepatitis B virus.
For the next data set, the system named is HBV rtM204I. As to the kind of experiment: microbe, parasite or virus in culture. The conditions noted are these: Hepatitis B virus, HepG2. The data set is classed as cell-based.
For another data set, the system named is HBV rtS202G+M204I+M250V. As to the kind of experiment: microbe, parasite or virus in culture. The data set is classed as cell-based. The conditions noted are these: Hepatitis B virus, HepG2.
The next data set relates to HBV rtS202G+M204I. As to the kind of experiment: microbe, parasite or virus in culture. Format: cell-based. The settings on record: Hepatitis B virus, HepG2.
The next data set deals with HBV rtA181V. Nature of the data set: microbe, parasite or virus in culture. The settings on record: Hepatitis B virus, HepG2. Format: cell-based.
In another data set the test system is HBV coreP25A. As to the kind of experiment: microbe, parasite or virus in culture. The conditions noted are these: Hepatitis B virus, HepG2. Format: cell-based, Hepatitis B virus.
A further data set has as its system hepatitis C virus. As to the kind of experiment: Antiviral panel: hepatitis C virus. Format: cell-based. The settings on record: up to 100 μM, data not shown.
Data set [5] concerns human immunodeficiency virus 1. As to the kind of experiment: Antiviral panel: human immunodeficiency virus 1. The data set is classed as cell-based. The settings on record: up to 100 μM, data not shown.
Data set [6] deals with respiratory syncytial virus. Nature of the data set: Antiviral panel: respiratory syncytial virus. The data set is classed as cell-based. The settings on record: up to 100 μM, data not shown.
The next data set in a line: Protein binding. The data set is classed as in vitro ADME. The settings on record: data not shown.
A further data set concerns HBV. As to the kind of experiment: Serum shift of anti-HBV EC50. Format: cell-based, Hepatitis B virus. The settings on record: data not shown.
The nature of data set [7]: Food effect on plasma exposure in rats. The data set is classed as in vivo. The conditions noted are these: single oral 50 mg/kg, data not shown.
Another data set concerns HK-2 human kidney cells. As to the kind of experiment: Cytotoxicity in HK-2 kidney cells (CellTiter-Glo). The settings on record: up to 100 μM, 72 h.
The subject of data set [8] is human bone marrow mononuclear cells. Nature of the data set: Cytotoxicity in bone marrow mononuclear cells (CellTiter-Glo). The settings on record: at 100 μM or greater, 72 h. Background: Cellular ATP, detected with luciferase, serves as a proxy for viable cell number.
Method: HK-2 human kidney cells were obtained from ATCC (Manassas, VA) and cultured in Gibco Keratinocyte serum-free medium (Thermo Fisher Scientific, Waltham, MA) supplemented with 10% FBS (Peak Serum, Wellington, CO). Human skeletal muscle cells were obtained from Lonza (Walkersville, MD) and cultured in SkGM-2 skeletal muscle cell growth medium-2 (Lonza). Both HK-2 and skeletal muscle cells were cultured humidified at 37°C and 5% CO2. Cryopreserved human primary hepatocytes and medium were received from Lonza. Cryopreserved iCell cardiomyocytes and cardiomyocyte medium were purchased from Stem Cell Technologies (Vancouver, BC, Canada). Cryopreserved human bone marrow mononuclear cells were purchased from Lonza with HemaTox Myeloid medium purchased from [sequence] […] All cryopreserved cells (human primary hepatocytes, iCell cardiomyocytes, and human bone marrow mononuclear cells) were stored in vapor phase liquid nitrogen until the day of plating. […] Serial dilutions of compounds in DMSO were as follows: 100, 10, 1, 0.1, 0.01, 0.001, 0.0001, and 0.00001 μM (final concentration of DMSO in medium was 0.5%).
HK-2 and skeletal muscle cells were seeded into 96-well plates at 5,000 cells/well and incubated overnight at 37°C and 5% CO2. Human hepatocytes were thawed, diluted in hepatocyte plating medium (Lonza) and seeded into a 96-well, collagen-coated plates at 2.5 × 10^4 cells/well. Hepatocytes were incubated for 6 h at 37°C in 5% CO2, then the medium was aspirated and replaced with hepatocyte culture medium at 50 μl/well, and finally incubated overnight. The iCell cardiomyocytes were thawed, suspended in iCell thawing/plating medium, and plated at 4 × 10^4 cells/well in a gelatin-coated 96-well plate. iCells were incubated for 2 days at 37°C in 7% CO2. […]
(§1) Following incubation, cells were dosed and incubated for 72 h at 37°C and 5% CO2. Following incubation, the endpoint cell viability CellTiter-Glo 2.0 assay (Promega, San Luis Obispo, CA) was performed and luminescence data collected on a Synergy 4 plate reader (Biotek, Winooski, VT). […]

Molecules are shown by their SMILES.

Method for HK-2 human kidney cells: HK-2 human kidney cells were obtained from ATCC (Manassas, VA) and cultured in Gibco Keratinocyte serum-free medium (Thermo Fisher Scientific, Waltham, MA) supplemented with 10% FBS (Peak Serum, Wellington, CO). Human skeletal muscle cells were obtained from Lonza (Walkersville, MD) and cultured in SkGM-2 skeletal muscle cell growth medium-2 (Lonza). Both HK-2 and skeletal muscle cells were cultured humidified at 37°C and 5% CO2. Cryopreserved human primary hepatocytes and medium were received from Lonza. Cryopreserved iCell cardiomyocytes and cardiomyocyte medium were purchased from Stem Cell Technologies (Vancouver, BC, Canada). Cryopreserved human bone marrow mononuclear cells were purchased from Lonza with HemaTox Myeloid medium purchased from [sequence] […] All cryopreserved cells (human primary hepatocytes, iCell cardiomyocytes, and human bone marrow mononuclear cells) were stored in vapor phase liquid nitrogen until the day of plating. […] Serial dilutions of compounds in DMSO were as follows: 100, 10, 1, 0.1, 0.01, 0.001, 0.0001, and 0.00001 μM (final concentration of DMSO in medium was 0.5%). […]
as §1

The term EC50 denotes the concentration at which the effect is half-maximal. The term fraction unbound denotes the share of the substance not bound to proteins or other matrix. For the molecule `Cc1cn(C2OC(COP(=O)(NC(C)C(=O)OC(C)C)Oc3ccccc3)C(O)C2F)c(=O)[nH]c1=O` (centres unmarked) [ATI-2173], the concentration for a half-maximal effect (EC50) in the data set on HBV genotype D was 260 nM; in data set [1] it was 212 to 718 nM; in data set [2], 212 nM; in [3] it was 227 nM; in the data set with HBV genotype D (U955551), 234 nM; in data set [4], 427 nM. In addition, the EC50 in the data set with HBV wild type (U95551) was 601 nM; in the data set on HBV rtM204I it was more than 10000 nM; in the data set on HBV rtS202G+M204I+M250V, more than 10000 nM; with HBV rtS202G+M204I, more than 10000 nM; in the data set with HBV rtA181V it was more than 10000 nM; in the data set on HBV coreP25A it was 537 nM. Also, the Antiviral efficacy entry (in the data set with hepatitis C virus; in data set [5]; in data set [6]) was “no detectable efficacy” throughout. This molecule showed a fraction unbound in “Protein binding” of approximately 0.45. Moreover, the “Serum shift in EC50” value with HBV is “no clear serum shift”. The “Difference in plasma exposure (Cmax or AUC0-last) to ATI-2173 or clevudine, fed versus fasted” value in data set [7] is “no discernible differences”. Besides, the Cytotoxicity result is “did not demonstrate any cytotoxicity” with HK-2 human kidney cells; “Minimal cytotoxicity and mild” in data set [8].
